Data from US20230143612A1 (Arbutus Biopharma Corporation, priority 2020, published 2023).

Molecular target: PD-L1 His protein / PD-1 Fc protein (Homo sapiens, UniProt Q9NZQ7)
Assay: HTRF Assay (PD-1/PD-L1 interaction)
Type: binding
Settings: PD-L1 His 6 nM, PD-1 Fc 6 nM
Procedure: PD-L1 His protein was prepared and added at the final concentration of 6 nM in the White opaque 384 well plate (Corning cat #3824BC). PD-L1 small molecule inhibitors were diluted by 3-fold starting from 20 μM and a final concentration of 0.001 μM and added to the well. PD-1 Fc protein was added at the final concentration of 6 nM. PD-L1 His protein, PD-L1 small molecule inhibitors, and PD1 Fc proteins were added to the well in this order, with each 5 μl volume, and were incubated for 15 minutes at room temperature. PAb anti-Human IgG-XL665 (Cisbio, cat #61HFCXLA) and Mab anti-6HIS Tb cryptate Gold (Cisbio, cat #61HI2TLA) were mixed at 6.7 nM and 0.35 nM respectively, and total 5 μl volume of mixture was added to the well and incubated at room temperature for 1 hour. The plate was read using PerkinElmer Envision plate reader and data was analyzed by Prism 6 software.

PD-L1 His protein / PD-1 Fc protein, sequence (Q9NZQ7 19-238 limits assumed): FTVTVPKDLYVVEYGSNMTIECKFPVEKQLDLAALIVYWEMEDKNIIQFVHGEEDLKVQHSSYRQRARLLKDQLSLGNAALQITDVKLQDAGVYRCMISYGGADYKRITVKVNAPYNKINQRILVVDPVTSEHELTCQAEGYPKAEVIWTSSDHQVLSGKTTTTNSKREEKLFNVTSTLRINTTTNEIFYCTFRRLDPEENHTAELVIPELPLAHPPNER

Row | Compound | IC50 [nM]
1 | CN1CCC(NCCO)c2ccc(-c3cccc(-c4cccc(-c5ccc6c(n5)N(C)CCC6NCCO)c4Cl)c3Cl)nc21 (mixture of isomers) [Example 34, 2,2′-(((2,2′-Dichloro-[1,1′-biphenyl]-3,3′-diyl)bis(1-methyl-1,2,3,4-tetrahydro-1,8-naphthyridine-7,4-diyl))bis(azanediyl))bis(ethan-1-ol)] | 4.8
2 | Cc1c(-c2ccn3c(=O)c(CNC[C@@H]4CCC(=O)N4)cnc3c2)cccc1-c1cccc(-c2ccc3c(c2)CC(N)C3)c1Cl (mixture of isomers) [Example 40, 8-(3′-(2-Amino-2,3-dihydro-1H-inden-5-yl)-2′-chloro-2-methyl-[1,1′-biphenyl]-3-yl)-3-(((((S)-5-oxopyrrolidin-2-yl)methyl)amino)methyl)-4H-pyrido[1,2-a]pyrimidin-4-one] | 61
3 | Cc1c(-c2ccc3c(c2)CC(N)C3)cccc1-c1cccc(-c2ccn3c(=O)c(CNC[C@@H]4CCC(=O)N4)cnc3c2)c1C (mixture of isomers) [Example 41, 8-(3′-(2-Amino-2,3-dihydro-1H-inden-5-yl)-2,2′-dimethyl-[1,1′-biphenyl]-3-yl)-3-(((((S)-5-oxopyrrolidin-2-yl)methyl)amino)methyl)-4H-pyrido[1,2-a]pyrimidin-4-one] | 93
4 | Cc1c(-c2ccn3c(=O)c(CNC[C@@H]4CCC(=O)N4)cnc3c2)cccc1-c1cccc(-c2ccc3c(c2)CC(NC(=O)CN)C3)c1Cl (mixture of isomers) [Example 43, 2-Amino-N-(5-(2-chloro-2′-methyl-3′-(4-oxo-3-(((((S)-5-oxopyrrolidin-2-yl)methyl)amino)methyl)-4H-pyrido[1,2-a]pyrimidin-8-yl)-[1,1′-biphenyl]-3-yl)-2,3-dihydro-1H-inden-2-yl)acetamide] | 270
5 | Cc1c(-c2ccn3c(=O)c(CNC[C@@H]4CCC(=O)N4)cnc3c2)cccc1-c1cccc(-c2ccc3c(c2)CC(NC(=O)[C@@H](N)CO)C3)c1Cl (mixture of isomers) [Example 45, (2S)-2-Amino-N-(5-(2-chloro-2′-methyl-3′-(4-oxo-3-(((((S)-5-oxopyrrolidin-2-yl)methyl)amino)methyl)-4H-pyrido[1,2-a]pyrimidin-8-yl)-[1,1′-biphenyl]-3-yl)-2,3-dihydro-1H-inden-2-yl)-3-hydroxypropanamide] | 680
6 | Cc1c(-c2ccn3c(=O)c(CNC[C@@H]4CCC(=O)N4)cnc3c2)cccc1-c1cccc(-c2ccc3c(c2)CC(NC(=O)[C@@H]2CCCN2)C3)c1Cl (mixture of isomers) [Example 46, (2S)—N-(5-(2-Chloro-2′-methyl-3′-(4-oxo-3-(((((S)-5-oxopyrrolidin-2-yl)methyl)amino)methyl)-4H-pyrido[1,2-a]pyrimidin-8-yl)-[1,1′-biphenyl]-3-yl)-2,3-dihydro-1H-inden-2-yl)pyrrolidine-2-carboxamide] | 520
7 | COc1nc(-c2cccc(-c3cccc(-c4ccn5c(=O)c(CNC6CNC(=O)C6)cnc5c4)c3Cl)c2Cl)ccc1CNC1CNC(=O)C1 (mixture of isomers) [Example 63, 8-(2,2′-Dichloro-3′-(6-methoxy-5-(((5-oxopyrrolidin-3-yl)amino)methyl)pyridin-2-yl)-[1,1′-biphenyl]-3-yl)-3-(((5-oxopyrrolidin-3-yl)amino)methyl)-4H-pyrido[1,2-a]pyrimidin-4-one] | 1.5
8 | COc1nc(-c2cccc(-c3cccc(-c4ccn5c(=O)c(C6=NCC(C(=O)O)N6)cnc5c4)c3Cl)c2Cl)ccc1CNC[C@@H]1CCC(=O)N1 (mixture of isomers) [Example 179, 2-(8-(2,2′-Dichloro-3′-(6-methoxy-5-(((((S)-5-oxopyrrolidin-2-yl)methyl)amino)methyl)pyridin-2-yl)-[1,1′-biphenyl]-3-yl)-4-oxo-4H-pyrido[1,2-a]pyrimidin-3-yl)-4,5-dihydro-1H-imidazole-5-carboxylic acid] | 0.1
9 | COc1nc(-c2cccc(-c3cccc(-c4ccn5c(=O)c(CNC[C@@H]6CCC(=O)N6)cnc5c4)c3Cl)c2Cl)ccc1C1=NCCC(C(=O)O)N1 (mixture of isomers) [Example 180, 2-(6-(2,2′-Dichloro-3′-(4-oxo-3-(((((S)-5-oxopyrrolidin-2-yl)methyl)amino)methyl)-4H-pyrido[1,2-a]pyrimidin-8-yl)-[1,1′-biphenyl]-3-yl)-2-methoxypyridin-3-yl)-3,4,5,6-tetrahydropyrimidine-4-carboxylic acid] | 0.9
10 | COc1nc(-c2cccc(-c3cccc(-c4ccn5c(=O)c(C6=NCCC(C(=O)O)N6)cnc5c4)c3Cl)c2Cl)ccc1CNC[C@@H]1CCC(=O)N1 (mixture of isomers) [Example 199, 2-(8-(2,2′-Dichloro-3′-(6-methoxy-5-(((((S)-5-oxopyrrolidin-2-yl)methyl)amino)methyl)pyridin-2-yl)-[1,1′-biphenyl]-3-yl)-4-oxo-4H-pyrido[1,2-a]pyrimidin-3-yl)-3,4,5,6-tetrahydropyrimidine-4-carboxylic acid] | 0.1
11 | COc1nc(-c2cccc(-c3cccc(-c4ccn5c(=O)c(CNCC6CCCC(=O)N6)cnc5c4)c3Cl)c2Cl)ccc1CNC[C@@H]1CCC(=O)N1 (mixture of isomers) [Example 206, 8-(2,2′-Dichloro-3′-(6-methoxy-5-(((((S)-5-oxopyrrolidin-2-yl)methyl)amino)methyl)pyridin-2-yl)-[1,1′-biphenyl]-3-yl)-3-((((6-oxopiperidin-2-yl)methyl)amino)methyl)-4H-pyrido[1,2-a]pyrimidin-4-one] | 14
12 | COc1nc(CC2CCc3c(-c4cccc(-c5ccn6c(=O)c(CNC[C@@H]7CCC(=O)N7)cnc6c5)c4Cl)cccc32)c(Cl)cc1CNC[C@@H]1CCC(=O)N1 (mixture of isomers) [Example 213, 8-(2-chloro-3-(1-((3-chloro-6-methoxy-5-(((((S)-5-oxopyrrolidin-2-yl)methyl)amino)methyl)pyridin-2-yl)methyl)-2,3-dihydro-1H-inden-4-yl)phenyl)-3-(((((S)-5-oxopyrrolidin-2-yl)methyl)amino)methyl)-4H-pyrido[1,2-a]pyrimidin-4-one] | 3700
13 | COc1nc(-c2cccc(-c3cccc(-c4ccn5c(=O)c(CNCC6CC(F)(F)C(=O)N6)cnc5c4)c3Cl)c2Cl)ccc1CNC[C@@H]1CCC(=O)N1 (mixture of isomers) [Example 253, 8-[2-Chloro-3-[2-chloro-3-[6-methoxy-5-[[[(2S)-5-oxopyrrolidin-2-yl]methylamino]methyl]-2-pyridyl]phenyl]phenyl]-3-[[(4,4-difluoro-5-oxo-pyrrolidin-2-yl)methylamino]methyl]pyrido[1,2-a]pyrimidin-4-one] | 5.7
14 | COc1nc(-c2cccc(-c3cccc(-c4ccn5c(=O)c(CN6CCC6C(N)=O)cnc5c4)c3Cl)c2Cl)ccc1CNC[C@@H]1CCC(=O)N1 (mixture of isomers) [Example 259, 1-[[8-[2-Chloro-3-[2-chloro-3-[6-methoxy-5-[[[(2S)-5-oxopyrrolidin-2-yl]methylamino]methyl]-2-pyridyl]phenyl]phenyl]-4-oxo-pyrido[1,2-a]pyrimidin-3-yl]methyl]azetidine-2-carboxamide] | 2.3
15 | COc1nc(-c2cccc(-c3cccc(-c4ccn5c(=O)c(CNCC(O)C6CC6)cnc5c4)c3Cl)c2Cl)ccc1CNC[C@@H]1CCC(=O)N1 (mixture of isomers) [Example 274, 3-(((2-Cyclopropyl-2-hydroxyethyl)amino)methyl)-8-(2,2′-dichloro-3′-(6-methoxy-5-(((((S)-5-oxopyrrolidin-2-yl)methyl)amino)methyl)pyridin-2-yl)-[1,1′-biphenyl]-3-yl)-4H-pyrido[1,2-a]pyrimidin-4-one] | 65
16 | COc1nc(-c2cccc(-c3cccc(-c4ccn5c(=O)c(CNCC(C)(O)C6CC6)cnc5c4)c3Cl)c2Cl)ccc1CNC[C@@H]1CCC(=O)N1 (mixture of isomers) [Example 280, 3-(((2-cyclopropyl-2-hydroxypropyl)amino)methyl)-8-(2,2′-dichloro-3′-(6-methoxy-5-(((((S)-5-oxopyrrolidin-2-yl)methyl)amino)methyl)pyridin-2-yl)-[1,1′-biphenyl]-3-yl)-4H-pyrido[1,2-a]pyrimidin-4-one] | 37
17 | COc1nc(-c2cccc(-c3cccc(-c4ccc5c(c4)OCCC5NC[C@@H]4CCC(=O)N4)c3Cl)c2Cl)ccc1CNC[C@@H]1CCC(=O)N1 (mixture of isomers) [Example 326, (5S)-5-((((6-(2,2′-Dichloro-3′-(4-((((S)-5-oxopyrrolidin-2-yl)methyl)amino)chroman-7-yl)-[1,1′-biphenyl]-3-yl)-2-methoxypyridin-3-yl)methyl)amino)methyl)pyrrolidin-2-one] | 24
18 | COc1nc(-c2cccc(-c3cccc(-c4ccc5c(n4)N(C)CCC5NC[C@@H]4CCC(=O)N4)c3Cl)c2Cl)ccc1CNC[C@@H]1CCC(=O)N1 (mixture of isomers) [Example 51, (5S)-5-(((7-(2,2′-Dichloro-3′-(6-methoxy-5-(((((S)-5-oxopyrrolidin-2-yl)methyl)amino)methyl)pyridin-2-yl)-[1,1′-biphenyl]-3-yl)-1-methyl-1,2,3,4-tetrahydro-1,8-naphthyridin-4-yl)amino)methyl)pyrrolidin-2-one] | 2.9
19 | COc1nc(-c2cccc(-c3cccc(-c4ccc5c(n4)N(C)CCC5NC[C@@H]4CCC(=O)N4)c3Cl)c2Cl)cnc1CNC[C@@H]1CCC(=O)N1 (mixture of isomers) [Example 56, (5S)-5-(((7-(2,2′-Dichloro-3′-(6-methoxy-5-(((((S)-5-oxopyrrolidin-2-yl)methyl)amino)methyl)pyrazin-2-yl)-[1,1′-biphenyl]-3-yl)-1-methyl-1,2,3,4-tetrahydro-1,8-naphthyridin-4-yl)amino)methyl)pyrrolidin-2-one] | 0.7
